Where two headings read alike, the source gives them in different places.
Test: in vivo
Description: General Protocol for Prodrugs Rat PK Studies Conducted at ChemPartner, China
A total of three naïve male Wistar Han rats, 200-250 g, were received from Beijing VR Laboratory Animal Co. LTD. Following an acclimation period, the animals were assigned to the study based on acceptable health as determined by a staff veterinarian and catheter patency. Fasting of the animals before or after dosing was not required.
On Day 1, each animal received a single intramuscular injection of prepared test article at a target dose level of 20 mg/kg equivalent of EFdA and at a dose volume of 2 mL/kg. The injection sites were at gastrocnemius and identified with an indelible marker for daily monitoring during the study. The animals were manually restrained for dosing and were not sedated. The dose suspension was mixed well by inversion before each dose to ensure homogeneity. […] In addition, all animals are monitored twice daily by the veterinary staff for clinical abnormalities.
Blood samples were collected from the study animals as detailed in the sample collection Table 6 below
Each blood sample for PK (200 μL) was collected from tail vein. The blood was transferred to a tube containing NaF/Na2EDTA anticoagulant and inverted several times to mix. Draw 150 μL whole blood from the tube, add 150 uL 100 mM ammonium acetate, pH 4 buffer and mix well. The resulting blood samples were transferred to individual polypropylene tubes and immediately placed on dry ice until storage at nominally −80° C. prior to LC-MS/MS analysis.

[1] = day 14, single IM Example 9B 20 mg/kg equivalent of EFdA
[2] = day 21, single IM Example 9B 20 mg/kg equivalent of EFdA
[3] = day 28, single IM Example 9B 20 mg/kg equivalent of EFdA
[4] = day 28, single IM Example 2B 20 mg/kg
[5] = day 35, single IM Example 2B 20 mg/kg

## C#C[C@]1(COP(=O)(N[C@@H](Cc2ccccc2)C(=O)OCCCCCCCCCC)OCC(=O)OCCCCCCCCCC)O[C@@H](n2cnc3c(N)nc(F)nc32)C[C@@H]1O (single isomer, unassigned) [Example 9B]
[1]
  Mean concentration of EFdA: BQL (BQL = below quantification limit, 0.2-0.3 ng/mL for Example 9B and 0.2 ng/mL for EFdA)
  Mean concentration of Example 9B: BQL (BQL = below quantification limit, 0.2-0.3 ng/mL for Example 9B and 0.2 ng/mL for EFdA)
[2]
  Mean concentration of EFdA: BQL (BQL = below quantification limit, 0.2-0.3 ng/mL for Example 9B and 0.2 ng/mL for EFdA)
  Mean concentration of Example 9B: BQL (BQL = below quantification limit, 0.2-0.3 ng/mL for Example 9B and 0.2 ng/mL for EFdA)
[3]
  Mean concentration of EFdA: BQL (BQL = below quantification limit, 0.2-0.3 ng/mL for Example 9B and 0.2 ng/mL for EFdA)
  Mean concentration of Example 9B: BQL (BQL = below quantification limit, 0.2-0.3 ng/mL for Example 9B and 0.2 ng/mL for EFdA)
male, Wistar Han, rat, whole blood, intramuscular, day 1, single IM Example 9B 20 mg/kg equivalent of EFdA, read-out: Mean concentration of Example 9B
  concentration at 1 day: 3.01 ng/mL
male, Wistar Han, rat, whole blood, intramuscular, day 7, single IM Example 9B 20 mg/kg equivalent of EFdA, read-out: Mean concentration of Example 9B
  concentration at 7 day: 0.663 ng/mL

## C#C[C@]1(COP(=O)(N[C@@H](Cc2ccccc2)C(=O)OCCCCCCCCCCCCCCCCCCCCCC)Oc2ccccc2)O[C@@H](n2cnc3c(N)nc(F)nc32)C[C@@H]1O (single isomer, unassigned) [Example 1B]
Day 1, single IM Example 1B 62 mg/kg
  Mean concentration of EFdA: BQL (BQL = below quantification limit; 0.3 ng/mL for both)
Day 7, single IM Example 1B 62 mg/kg
  Mean concentration of EFdA: BQL (BQL = below quantification limit; 0.3 ng/mL for both)
Day 14, single IM Example 1B 62 mg/kg
  Mean concentration of EFdA: BQL (BQL = below quantification limit; 0.3 ng/mL for both)
Day 21, single IM Example 1B 62 mg/kg
  Mean concentration of EFdA: BQL (BQL = below quantification limit; 0.3 ng/mL for both)
Day 28, single IM Example 1B 62 mg/kg
  Mean concentration of EFdA: BQL (BQL = below quantification limit; 0.3 ng/mL for both)
Day 35, single IM Example 1B 62 mg/kg
  Mean concentration of EFdA: BQL (BQL = below quantification limit; 0.3 ng/mL for both)
Day 42, single IM Example 1B 62 mg/kg
  Mean concentration of EFdA: BQL (BQL = below quantification limit; 0.3 ng/mL for both)
Day 49, single IM Example 1B 62 mg/kg
  Mean concentration of EFdA: BQL (BQL = below quantification limit; 0.3 ng/mL for both)
Day 56, single IM Example 1B 62 mg/kg
  Mean concentration of EFdA: BQL (BQL = below quantification limit; 0.3 ng/mL for both)
Day 63, single IM Example 1B 62 mg/kg
  Mean concentration of EFdA: BQL (BQL = below quantification limit; 0.3 ng/mL for both)
Day 70, single IM Example 1B 62 mg/kg
  Mean concentration of EFdA: BQL (BQL = below quantification limit; 0.3 ng/mL for both)
Day 77, single IM Example 1B 62 mg/kg
  Mean concentration of EFdA: BQL (BQL = below quantification limit; 0.3 ng/mL for both)
Day 84, single IM Example 1B 62 mg/kg
  Mean concentration of EFdA: BQL (BQL = below quantification limit; 0.3 ng/mL for both)
male, Wistar Han, rat, in vivo, day 1, single IM Example 1B 62 mg/kg, read-out: Mean concentration of Example 1B
  concentration at 1 day: 70.5 ng/mL
male, Wistar Han, rat, in vivo, day 7, single IM Example 1B 62 mg/kg, read-out: Mean concentration of Example 1B
  concentration at 7 day: 8.75 ng/mL
male, Wistar Han, rat, in vivo, day 14, single IM Example 1B 62 mg/kg, read-out: Mean concentration of Example 1B
  concentration at 14 day: 6.78 ng/mL
male, Wistar Han, rat, in vivo, day 21, single IM Example 1B 62 mg/kg, read-out: Mean concentration of Example 1B
  concentration at 21 day: 3.53 ng/mL
male, Wistar Han, rat, in vivo, day 28, single IM Example 1B 62 mg/kg, read-out: Mean concentration of Example 1B
  concentration at 28 day: 4.36 ng/mL
male, Wistar Han, rat, in vivo, day 35, single IM Example 1B 62 mg/kg, read-out: Mean concentration of Example 1B
  concentration at 35 day: 1.72 ng/mL
male, Wistar Han, rat, in vivo, day 42, single IM Example 1B 62 mg/kg, read-out: Mean concentration of Example 1B
  concentration at 42 day: 1.92 ng/mL
male, Wistar Han, rat, in vivo, day 49, single IM Example 1B 62 mg/kg, read-out: Mean concentration of Example 1B
  concentration at 49 day: 0.912 ng/mL
male, Wistar Han, rat, in vivo, day 56, single IM Example 1B 62 mg/kg, read-out: Mean concentration of Example 1B
  concentration at 56 day: 1.33 ng/mL
male, Wistar Han, rat, in vivo, day 63, single IM Example 1B 62 mg/kg, read-out: Mean concentration of Example 1B
  concentration at 63 day: 0.748 ng/mL
male, Wistar Han, rat, in vivo, day 70, single IM Example 1B 62 mg/kg, read-out: Mean concentration of Example 1B
  concentration at 70 day: 0.767 ng/mL
male, Wistar Han, rat, in vivo, day 77, single IM Example 1B 62 mg/kg, read-out: Mean concentration of Example 1B
  concentration at 77 day: 1.55 ng/mL
male, Wistar Han, rat, in vivo, day 84, single IM Example 1B 62 mg/kg, read-out: Mean concentration of Example 1B
  concentration at 84 day: 2.48 ng/mL

## C#C[C@]1(COP(=O)(N[C@@H](Cc2ccccc2)C(=O)OCCCCCCCCCCCCCCCC)Oc2ccccc2)O[C@@H](n2cnc3c(N)nc(F)nc32)C[C@@H]1O (single isomer, unassigned) [Example 2B]
Day 1, single IM Example 2B 20 mg/kg
  Mean concentration of EFdA: BQL (BQL = below quantification limit, 0.2-0.3 ng/mL for both)
Day 7, single IM Example 2B 20 mg/kg
  Mean concentration of EFdA: BQL (BQL = below quantification limit, 0.2-0.3 ng/mL for both)
Day 14, single IM Example 2B 20 mg/kg
  Mean concentration of EFdA: BQL (BQL = below quantification limit, 0.2-0.3 ng/mL for both)
Day 21, single IM Example 2B 20 mg/kg
  Mean concentration of EFdA: BQL (BQL = below quantification limit, 0.2-0.3 ng/mL for both)
[4]
  Mean concentration of EFdA: BQL (BQL = below quantification limit, 0.2-0.3 ng/mL for both)
  Mean concentration of Example 2B: BQL (BQL = below quantification limit, 0.2-0.3 ng/mL for both)
[5]
  Mean concentration of EFdA: BQL (BQL = below quantification limit, 0.2-0.3 ng/mL for both)
  Mean concentration of Example 2B: BQL (BQL = below quantification limit, 0.2-0.3 ng/mL for both)
male, Wistar Han, rat, in vivo, day 1, single IM Example 2B 20 mg/kg, read-out: Mean concentration of Example 2B
  concentration at 1 day: 0.514 ng/mL
male, Wistar Han, rat, in vivo, day 7, single IM Example 2B 20 mg/kg, read-out: Mean concentration of Example 2B
  concentration at 7 day: 0.708 ng/mL
male, Wistar Han, rat, in vivo, day 14, single IM Example 2B 20 mg/kg, read-out: Mean concentration of Example 2B
  concentration at 14 day: 1.11 ng/mL
male, Wistar Han, rat, in vivo, day 21, single IM Example 2B 20 mg/kg, read-out: Mean concentration of Example 2B
  concentration at 21 day: 1.33 ng/mL

Reference: patent US20230151049A1, “Compounds Useful in HIV Therapy” (priority 2020, published 2023)
